According to patent US20230338380A1, “Stable Immediate Release Tablet and Capsule Formulations of 1-((2S,5R)-5-((7H-Pyrrolo[2,3-D]Pyrimidin-4-YL)Amino)-2-Methylpiperidin-1-YL)Prop-2-EN-1-One” (Pfizer R&D UK Limited, priority 2019, published 2023):

Assay: Dynamic vapor sorption (DVS) of filler excipients
Type: physicochemical
Conditions: excipient alone; humidity of 90% RH
From the text: Also noted were the stability results for experimental formulation E, blended with lactose anhydrous. […] Lactose anhydrous was used in blend E rather than lactose monohydrate due to concerns regarding the impact of water upon the degradation of PF-06651600-15. To further explore the hygroscopic properties of lactose monohydrate, dynamic vapor sorption (DVS) traces were generated for both lactose anhydrous and lactose monohydrate (FIG. 24). The results for both were similar as the mass increased less than 2% at a humidity of 90% RH.

Mass increase (DVS): ~1.1%
Compound: OC[C@H]1O[C@@H](O[C@H]2[C@H](O)[C@@H](O)C(O)O[C@@H]2CO)[C@H](O)[C@@H](O)[C@H]1O (stereo partly shown) [lactose anhydrous]
